The source made the active and inactive calls. No cut-off for these calls is given here.
Assays:
[1] = Antioxidant activity assessed as DPPH radical scavenging activity after 30 mins under dark condition by spectrophotometric analysis; format: functional
[2] = Acute toxicity in ip dosed Swiss albino mouse measured after 24 hrs; format: organism-based; details: in vivo
[3] = system: Mus musculus; assay: (§1) Antioxidant activity in ip dosed Swiss albino mouse assessed as reduction in gamma irradiation-induced hepatic oxidative stress by measuring reduction in MDA level in liver at 1/10 x LD50 treated at 2 hrs prior to 5 Gy gamma irradiation exposure on 1st day followed by compound treatment for next 2 days and measured at 24 hrs post last dose; format: functional; details: time 3 day
[4] = system: Mus musculus; assay: Hepatoprotective activity in ip dosed Swiss albino mouse assessed as serum ALT level at 1/10 x LD50 treated at 2 hrs prior to 5 Gy gamma irradiation exposure on 1st day followed by compound treatment for next 2 days and measured at 24 hrs post last dose; format: functional, organism-based; details: time 3.0 day
[5] = system: Mus musculus; assay: as §1, with “ROS” for “MDA”; format: functional; details: time 3 day
[6] = system: Mus musculus; assay: as §1, with “measuring increase” for “measuring reduction”, “in SOD activity” for “in MDA level”; format: functional; parameters: scale not given: the % may be the effect or the level left; details: time 3 day
[7] = system: Mus musculus; assay: as §1, with “measuring increase” for “measuring reduction”, “in Zn2+ concentration” for “in MDA level”; format: functional; parameters: scale not given: the % may be the effect or the level left; details: time 3 day
[8] = system: Mus musculus; assay: Radioprotective activity in ip dosed Swiss albino mouse assessed as reduction in gamma irradiation-induced decrease in PON1 activity by measuring increase in PON1 activity in liver at 1/10 x LD50 treated at 2 hrs prior to 5 Gy gamma irradiation exposure on 1st day followed by compound treatment for next 2 days and measured at 24 hrs post last dose; format: functional; parameters: scale not given: the % may be the effect or the level left; details: time 3 day
[9] = system: Mus musculus; assay: Hepatoprotective activity in ip dosed Swiss albino mouse assessed as serum AST level at 1/10 x LD50 treated at 2 hrs prior to 5 Gy gamma irradiation exposure on 1st day followed by compound treatment for next 2 days and measured at 24 hrs post last dose; format: functional, organism-based; details: time 3.0 day
[10] = system: Mus musculus; assay: Radioprotective activity in ip dosed Swiss albino mouse assessed as reduction in gamma irradiation-induced increase in NF-kappaB activity by measuring decrease in NFkappaB activity in liver at 1/10 x LD50 treated at 2 hrs prior to 5 Gy gamma irradiation exposure on 1st day followed by compound treatment for next 2 days and measured at 24 hrs post last dose by ELISA; format: functional; details: time 3 day
[11] = system: Mus musculus; assay: Radioprotective activity in ip dosed Swiss albino mouse assessed as reduction in gamma-irradiation-induced decline in serum albumin level at 1/10 x LD50 treated at 2 hrs prior to 5 Gy gamma irradiation exposure on 1st day followed by compound treatment for next 2 days and measured at 24 hrs post last dose; format: functional, organism-based; details: time 3.0 day

| SMILES | IC50 [1] [µM] | other results |
| --- | --- | --- |
| CN1C(=O)c2ccc(NC(=O)CSc3nc4ccccc4c(=O)n3-c3ccc(S(N)(=O)=O)cc3)cc2C1=O | 48.5 |  |
| NS(=O)(=O)c1ccc(-n2c(SCC(=O)Nc3c[nH]c(=O)[nH]c3=O)nc3ccccc3c2=O)cc1 | 54.4 |  |
| NS(=O)(=O)c1ccc(-n2c(SCC(=O)Nc3cnccn3)nc3ccccc3c2=O)cc1 | 45.8 | LD50 at 24 h [2]: 200 mg/kg; inhibition (INH) [3]: 49%; Activity [4]: inactive; inhibition (INH) [5]: 30.6%; Activity [6]: 157%; Activity [7]: 39.4%; Activity [8]: 104.8%; Activity [9]: inactive; inhibition (INH) [10]: 45.6%; Activity [11]: Active |
| Cc1cc(NC(=O)CSc2nc3ccccc3c(=O)n2-c2ccc(S(N)(=O)=O)cc2)no1 | 82.4 |  |
| NS(=O)(=O)c1ccc(-n2c(SCC(=O)Nc3nnc(C(F)(F)F)s3)nc3ccccc3c2=O)cc1 | 107 |  |
| CCOC(=O)c1ccccc1NC(=O)CSc1nc2ccccc2c(=O)n1-c1ccc(S(N)(=O)=O)cc1 | 89.5 |  |
| NS(=O)(=O)c1ccc(-n2c(SCC(=O)Nc3nccs3)nc3ccccc3c2=O)cc1 | 125 |  |

More lines, in order of falling IC50 [1], values ahead:

| IC50 [1] [µM] | SMILES | other results |
| --- | --- | --- |
| 132 | O=C1O[C@H]([C@@H](O)CO)C(O)=C1O [ASCORBIC ACID] |  |
| 108 | CCOC(=O)N1CCC(NC(=O)CSc2nc3ccccc3c(=O)n2-c2ccc(S(N)(=O)=O)cc2)CC1 |  |
| 104 | NS(=O)(=O)c1ccc(-n2c(SCC(=O)NC3CCN(Cc4ccccc4)CC3)nc3ccccc3c2=O)cc1 |  |
| 94.8 | NS(=O)(=O)c1ccc(-n2c(SCC(=O)Nc3nc4ccc([N+](=O)[O-])cc4s3)nc3ccccc3c2=O)cc1 |  |
| 69.8 | NS(=O)(=O)c1ccc(-n2c(SCC(=O)NCCN3CCOCC3)nc3ccccc3c2=O)cc1 |  |
| 66.4 | NS(=O)(=O)c1ccc(-n2c(SCC(=O)NN3CCOCC3)nc3ccccc3c2=O)cc1 |  |
| 65.7 | CCOC(=O)c1cccc(NC(=O)CSc2nc3ccccc3c(=O)n2-c2ccc(S(N)(=O)=O)cc2)c1 |  |
| 56.4 | Cn1c(NC(=O)CSc2nc3ccccc3c(=O)n2-c2ccc(S(N)(=O)=O)cc2)cc(=O)n(C)c1=O |  |
| 50.5 | CCOc1ccc2nc(NC(=O)CSc3nc4ccccc4c(=O)n3-c3ccc(S(N)(=O)=O)cc3)sc2c1 |  |

From ChEMBL document CHEMBL4680255, “Antioxidant activity of novel quinazolinones bearing sulfonamide: Potential radiomodulatory effects on liver tissues via NF-κB/ PON1 pathway” (Eur J Med Chem, 2020)
